# Measured values taken from ChEMBL document CHEMBL4308841, “Synthesis, in vitro antiproliferative activity, and kinase inhibitory effects of pyrazole-containing diarylureas and diarylamides” (Eur J Med Chem, 2018).
# Tested on: MOLT-4
# Test: Growth inhibition of human MOLT4 cells assessed as cell growth at 10 uM incubated for 48 hrs by sulforhodamine B assay relative to control
# Type: functional
# Settings: MOLT-4, 48 h, read-out: Activity
row,Compound,growth at 10 µM [%]
1,COc1cc(Cl)cc(-c2nn(-c3cccc(NC(=O)Nc4ccc(Cl)c(Cl)c4)c3)cc2-c2ccncc2)c1,-16.1

# Tested on: HOP-62
# Test: Growth inhibition of human HOP62 cells assessed as cell growth at 10 uM incubated for 48 hrs by sulforhodamine B assay relative to control
# Type: functional
# Settings: HOP-62, 48 h, read-out: Activity
row,Compound,growth at 10 µM [%]
1,COc1cc(Cl)cc(-c2nn(-c3cccc(NC(=O)Nc4ccc(Cl)c(Cl)c4)c3)cc2-c2ccncc2)c1,15.7

# Tested on: NCI-H226
# Test: Growth inhibition of human NCI-H226 cells assessed as cell growth at 10 uM incubated for 48 hrs by sulforhodamine B assay relative to control
# Type: functional
# Settings: NCI-H226, 48 h, read-out: Activity
row,Compound,growth at 10 µM [%]
1,COc1cc(Cl)cc(-c2nn(-c3cccc(NC(=O)Nc4ccc(Cl)c(Cl)c4)c3)cc2-c2ccncc2)c1,7.27

# Tested on: NCI-H460
# Test: Growth inhibition of human NCI-H460 cells assessed as cell growth at 10 uM incubated for 48 hrs by sulforhodamine B assay relative to control
# Type: functional
# Settings: NCI-H460, 48 h, read-out: Activity
row,Compound,growth at 10 µM [%]
1,COc1cc(Cl)cc(-c2nn(-c3cccc(NC(=O)Nc4ccc(Cl)c(Cl)c4)c3)cc2-c2ccncc2)c1,3.1

# Tested on: HCT-116
# Test: Growth inhibition of human HCT116 cells assessed as cell growth at 10 uM incubated for 48 hrs by sulforhodamine B assay relative to control
# Type: functional
# Settings: HCT-116, 48 h, read-out: Activity
row,Compound,growth at 10 µM [%]
1,COc1cc(Cl)cc(-c2nn(-c3cccc(NC(=O)Nc4ccc(Cl)c(Cl)c4)c3)cc2-c2ccncc2)c1,9.22

# Tested on: LOX IMVI
# Test: Growth inhibition of human LOXIMVI cells assessed as cell growth at 10 uM incubated for 48 hrs by sulforhodamine B assay relative to control
# Type: functional
# Settings: read-out: Activity
row,Compound,growth at 10 µM [%]
1,COc1cc(Cl)cc(-c2nn(-c3cccc(NC(=O)Nc4ccc(Cl)c(Cl)c4)c3)cc2-c2ccncc2)c1,9.24

# Tested on: MDA-MB-435
# Test: Growth inhibition of human MDA-MB-435 cells assessed as cell growth at 10 uM incubated for 48 hrs by sulforhodamine B assay relative to control
# Type: functional
# Settings: MDA-MB-435, 48 h, read-out: Activity
row,Compound,growth at 10 µM [%]
1,COc1cc(Cl)cc(-c2nn(-c3cccc(NC(=O)Nc4ccc(Cl)c(Cl)c4)c3)cc2-c2ccncc2)c1,0.46

# Tested on: UACC-257
# Test: Growth inhibition of human UACC257 cells assessed as cell growth at 10 uM incubated for 48 hrs by sulforhodamine B assay relative to control
# Type: functional
# Settings: UACC-257, 48 h, read-out: Activity
row,Compound,growth at 10 µM [%]
1,COc1cc(Cl)cc(-c2nn(-c3cccc(NC(=O)Nc4ccc(Cl)c(Cl)c4)c3)cc2-c2ccncc2)c1,-11.4

# Tested on: UACC-62
# Test: Growth inhibition of human UACC62 cells assessed as cell growth at 10 uM incubated for 48 hrs by sulforhodamine B assay relative to control
# Type: functional
# Settings: UACC-62, 48 h, read-out: Activity
row,Compound,growth at 10 µM [%]
1,COc1cc(Cl)cc(-c2nn(-c3cccc(NC(=O)Nc4ccc(Cl)c(Cl)c4)c3)cc2-c2ccncc2)c1,4.38

# Tested on: IGROV-1
# Test: Growth inhibition of human IGROV1 cells assessed as cell growth at 10 uM incubated for 48 hrs by sulforhodamine B assay relative to control
# Type: functional
# Settings: IGROV-1, 48 h, read-out: Activity
row,Compound,growth at 10 µM [%]
1,COc1cc(Cl)cc(-c2nn(-c3cccc(NC(=O)Nc4ccc(Cl)c(Cl)c4)c3)cc2-c2ccncc2)c1,36.7

# Tested on: OVCAR-3
# Test: Growth inhibition of human OVCAR3 cells assessed as cell growth at 10 uM incubated for 48 hrs by sulforhodamine B assay relative to control
# Type: functional
# Settings: OVCAR-3, 48 h, read-out: Activity
row,Compound,growth at 10 µM [%]
1,COc1cc(Cl)cc(-c2nn(-c3cccc(NC(=O)Nc4ccc(Cl)c(Cl)c4)c3)cc2-c2ccncc2)c1,4.11

# Tested on: NCI/ADR-RES
# Test: Growth inhibition of human NCI/ADR-RES cells assessed as cell growth at 10 uM incubated for 48 hrs by sulforhodamine B assay relative to control
# Type: functional
# Settings: read-out: Activity
row,Compound,growth at 10 µM [%]
1,COc1cc(Cl)cc(-c2nn(-c3cccc(NC(=O)Nc4ccc(Cl)c(Cl)c4)c3)cc2-c2ccncc2)c1,8.59

# Tested on: SK-OV-3
# Test: Growth inhibition of human SKOV3 cells assessed as cell growth at 10 uM incubated for 48 hrs by sulforhodamine B assay relative to control
# Type: functional
# Settings: SK-OV-3, 48 h, read-out: Activity
row,Compound,growth at 10 µM [%]
1,COc1cc(Cl)cc(-c2nn(-c3cccc(NC(=O)Nc4ccc(Cl)c(Cl)c4)c3)cc2-c2ccncc2)c1,14.2

# Tested on: 786-0
# Test: Growth inhibition of human 786-0 cells assessed as cell growth at 10 uM incubated for 48 hrs by sulforhodamine B assay relative to control
# Type: functional
# Settings: 786-0, 48 h, read-out: Activity
row,Compound,growth at 10 µM [%]
1,COc1cc(Cl)cc(-c2nn(-c3cccc(NC(=O)Nc4ccc(Cl)c(Cl)c4)c3)cc2-c2ccncc2)c1,19.6

# Tested on: ACHN
# Test: Growth inhibition of human ACHN cells assessed as cell growth at 10 uM incubated for 48 hrs by sulforhodamine B assay relative to control
# Type: functional
# Settings: read-out: Activity
row,Compound,growth at 10 µM [%]
1,COc1cc(Cl)cc(-c2nn(-c3cccc(NC(=O)Nc4ccc(Cl)c(Cl)c4)c3)cc2-c2ccncc2)c1,9.65

# Tested on: CAKI-1
# Test: Growth inhibition of human Caki1 cells assessed as cell growth at 10 uM incubated for 48 hrs by sulforhodamine B assay relative to control
# Type: functional
# Settings: CAKI-1, 48 h, read-out: Activity
row,Compound,growth at 10 µM [%]
1,COc1cc(Cl)cc(-c2nn(-c3cccc(NC(=O)Nc4ccc(Cl)c(Cl)c4)c3)cc2-c2ccncc2)c1,7.49

# Tested on: RXF 393
# Test: Growth inhibition of human RXF393 cells assessed as cell growth at 10 uM incubated for 48 hrs by sulforhodamine B assay relative to control
# Type: functional
# Settings: RXF 393, 48 h, read-out: Activity
row,Compound,growth at 10 µM [%]
1,COc1cc(Cl)cc(-c2nn(-c3cccc(NC(=O)Nc4ccc(Cl)c(Cl)c4)c3)cc2-c2ccncc2)c1,4.46

# Tested on: SN12C
# Test: Growth inhibition of human SN12C cells assessed as cell growth at 10 uM incubated for 48 hrs by sulforhodamine B assay relative to control
# Type: functional
# Settings: read-out: Activity
row,Compound,growth at 10 µM [%]
1,COc1cc(Cl)cc(-c2nn(-c3cccc(NC(=O)Nc4ccc(Cl)c(Cl)c4)c3)cc2-c2ccncc2)c1,15.5

# Tested on: UO-31
# Test: Growth inhibition of human UO31 cells assessed as cell growth at 10 uM incubated for 48 hrs by sulforhodamine B assay relative to control
# Type: functional
# Settings: UO-31, 48 h, read-out: Activity
row,Compound,growth at 10 µM [%]
1,COc1cc(Cl)cc(-c2nn(-c3cccc(NC(=O)Nc4ccc(Cl)c(Cl)c4)c3)cc2-c2ccncc2)c1,0.64

# Tested on: DU-145
# Test: Growth inhibition of human DU145 cells assessed as cell growth at 10 uM incubated for 48 hrs by sulforhodamine B assay relative to control
# Type: functional
# Settings: DU-145, 48 h, read-out: Activity
row,Compound,growth at 10 µM [%]
1,COc1cc(Cl)cc(-c2nn(-c3cccc(NC(=O)Nc4ccc(Cl)c(Cl)c4)c3)cc2-c2ccncc2)c1,12.1

# Tested on: MDA-MB-468
# Test: Growth inhibition of human MDA-MB-468 cells assessed as cell growth at 10 uM incubated for 48 hrs by sulforhodamine B assay relative to control
# Type: functional
# Settings: MDA-MB-468, 48 h, read-out: Activity
row,Compound,growth at 10 µM [%]
1,COc1cc(Cl)cc(-c2nn(-c3cccc(NC(=O)Nc4ccc(Cl)c(Cl)c4)c3)cc2-c2ccncc2)c1,0.72

# Tested on: NCI/ADR-RES
# Test: Growth inhibition of human NCI/ADR-RES cells incubated for 48 hrs by sulforhodamine B assay
# Type: functional, cell-based
# Settings: read-out: GI50
row,Compound,GI50 [µM]
1,COc1cc(Cl)cc(-c2nn(-c3cccc(NC(=O)Nc4ccc(Cl)c(Cl)c4)c3)cc2-c2ccncc2)c1,2.34

# Same assay, conditions: read-out: LC50 (the source's name)
row,Compound,CC50 [µM]
1,COc1cc(Cl)cc(-c2nn(-c3cccc(NC(=O)Nc4ccc(Cl)c(Cl)c4)c3)cc2-c2ccncc2)c1,> 100

# Same assay, conditions: read-out: TGI
row,Compound,TGI [µM]
1,COc1cc(Cl)cc(-c2nn(-c3cccc(NC(=O)Nc4ccc(Cl)c(Cl)c4)c3)cc2-c2ccncc2)c1,24.9

# Same assay, conditions: read-out: pGI50 (converted)
row,Compound,GI50 [µM]
1,COc1cc(Cl)cc(-c2nn(-c3cccc(NC(=O)Nc4ccc(Cl)c(Cl)c4)c3)cc2-c2ccncc2)c1,2.34

# Same assay, conditions: read-out: pLC50 (the source's name) (converted)
row,Compound,CC50 [µM]
1,COc1cc(Cl)cc(-c2nn(-c3cccc(NC(=O)Nc4ccc(Cl)c(Cl)c4)c3)cc2-c2ccncc2)c1,> 100

# Same assay, conditions: read-out: pTGI (converted)
row,Compound,TGI [µM]
1,COc1cc(Cl)cc(-c2nn(-c3cccc(NC(=O)Nc4ccc(Cl)c(Cl)c4)c3)cc2-c2ccncc2)c1,25.1

# Tested on: LOX IMVI
# Test: Growth inhibition of human LOXIMVI cells assessed as cell growth at 0.01 uM incubated for 48 hrs by sulforhodamine B assay relative to control
# Type: functional
# Settings: read-out: Activity
row,Compound,growth at 0.01 µM [%]
1,COc1cc(Cl)cc(-c2nn(-c3cccc(NC(=O)Nc4ccc(Cl)c(Cl)c4)c3)cc2-c2ccncc2)c1,96

# Tested on: MOLT-4
# Test: Growth inhibition of human MOLT4 cells assessed as cell growth at 0.1 uM incubated for 48 hrs by sulforhodamine B assay relative to control
# Type: functional
# Settings: MOLT-4, 48 h, read-out: Activity
row,Compound,growth at 0.1 µM [%]
1,COc1cc(Cl)cc(-c2nn(-c3cccc(NC(=O)Nc4ccc(Cl)c(Cl)c4)c3)cc2-c2ccncc2)c1,88

# Tested on: SF-295
# Test: Growth inhibition of human SF295 cells assessed as cell growth at 0.1 uM incubated for 48 hrs by sulforhodamine B assay relative to control
# Type: functional
# Settings: SF-295, 48 h, read-out: Activity
row,Compound,growth at 0.1 µM [%]
1,COc1cc(Cl)cc(-c2nn(-c3cccc(NC(=O)Nc4ccc(Cl)c(Cl)c4)c3)cc2-c2ccncc2)c1,57

# Tested on: SK-MEL-5
# Test: Growth inhibition of human SK-MEL-5 cells assessed as cell growth at 0.1 uM incubated for 48 hrs by sulforhodamine B assay relative to control
# Type: functional
# Settings: SK-MEL-5, 48 h, read-out: Activity
row,Compound,growth at 0.1 µM [%]
1,COc1cc(Cl)cc(-c2nn(-c3cccc(NC(=O)Nc4ccc(Cl)c(Cl)c4)c3)cc2-c2ccncc2)c1,96

# Tested on: PC-3
# Test: Growth inhibition of human PC3 cells assessed as cell growth at 0.1 uM incubated for 48 hrs by sulforhodamine B assay relative to control
# Type: functional
# Settings: PC-3, 48 h, read-out: Activity
row,Compound,growth at 0.1 µM [%]
1,COc1cc(Cl)cc(-c2nn(-c3cccc(NC(=O)Nc4ccc(Cl)c(Cl)c4)c3)cc2-c2ccncc2)c1,98

# Tested on: SK-MEL-5
# Test: Growth inhibition of human SK-MEL-5 cells assessed as cell growth at 1 uM incubated for 48 hrs by sulforhodamine B assay relative to control
# Type: functional
# Settings: SK-MEL-5, 48 h, read-out: Activity
row,Compound,growth at 1 µM [%]
1,COc1cc(Cl)cc(-c2nn(-c3cccc(NC(=O)Nc4ccc(Cl)c(Cl)c4)c3)cc2-c2ccncc2)c1,88

# Tested on: OVCAR-3
# Test: Growth inhibition of human OVCAR3 cells assessed as cell growth at 1 uM incubated for 48 hrs by sulforhodamine B assay relative to control
# Type: functional
# Settings: OVCAR-3, 48 h, read-out: Activity
row,Compound,growth at 1 µM [%]
1,COc1cc(Cl)cc(-c2nn(-c3cccc(NC(=O)Nc4ccc(Cl)c(Cl)c4)c3)cc2-c2ccncc2)c1,61

# Tested on: OVCAR-5
# Test: Growth inhibition of human OVCAR5 cells assessed as cell growth at 1 uM incubated for 48 hrs by sulforhodamine B assay relative to control
# Type: functional
# Settings: OVCAR-5, 48 h, read-out: Activity
row,Compound,growth at 1 µM [%]
1,COc1cc(Cl)cc(-c2nn(-c3cccc(NC(=O)Nc4ccc(Cl)c(Cl)c4)c3)cc2-c2ccncc2)c1,87

# Tested on: A549
# Test: Growth inhibition of human A549/ATCC cells assessed as cell growth at 100 uM incubated for 48 hrs by sulforhodamine B assay relative to control
# Type: functional
# Settings: A549, 48 h, read-out: Activity
row,Compound,growth at 100 µM [%]
1,COc1cc(Cl)cc(-c2nn(-c3cccc(NC(=O)Nc4ccc(Cl)c(Cl)c4)c3)cc2-c2ccncc2)c1,-10

# Tested on: HT-29
# Test: Growth inhibition of human HT-29 cells assessed as cell growth at 100 uM incubated for 48 hrs by sulforhodamine B assay relative to control
# Type: functional
# Settings: HT-29, 48 h, read-out: Activity
row,Compound,growth at 100 µM [%]
1,COc1cc(Cl)cc(-c2nn(-c3cccc(NC(=O)Nc4ccc(Cl)c(Cl)c4)c3)cc2-c2ccncc2)c1,-44

# Tested on: DU-145
# Test: Growth inhibition of human DU145 cells assessed as cell growth at 100 uM incubated for 48 hrs by sulforhodamine B assay relative to control
# Type: functional
# Settings: DU-145, 48 h, read-out: Activity
row,Compound,growth at 100 µM [%]
1,COc1cc(Cl)cc(-c2nn(-c3cccc(NC(=O)Nc4ccc(Cl)c(Cl)c4)c3)cc2-c2ccncc2)c1,13
